# Results as given in patent US20130253022A1 (FOX CHASE CHEMICAL DIVERSITY CENTER, INC., priority 2010, published 2013).
# pEC50: −log10 of the molar value.
# Key:
# 6-Hz psychomotor seizure = assay: 6 Hz psychomotor seizure test, mouse; assay type: in vivo, mice; conditions: ip
# Protocol: Methods to measure anticonvulsant activity: All tests were conducted by the Anticonvulsant Screening Program (ASP) of the National Institute of Neurological Disease and Stroke at the National Institutes of Health. The 6 Hz Seizure Test: Compounds were further tested in the 6-Hz psychomotor seizure model. (Barton et al. Pharmacological characterization of the 6 Hz psychomotor seizure model of partial epilepsy. Epilepsy Res. 2001, 47, 217-227). This model is used to detect […] that may be useful for the treatment of therapy-resistant partial seizures. For this test, an alternative electrical stimulation paradigm is used with a low frequency (6 Hz), long duration (3 seconds) corneal stimulation. The seizure evoked by this low frequency stimulation is characterized by immobility, forelimb clonus, Straub tail and facial automatisms. Mice are tested from 15 min to 4 hours following an intraperitoneal dose of 100 mg/kg. Abolition of the clonic seizures indicates the ability of a compound to prevent partial or psychomotor seizures.
# [1] = tested on: pentylenetetrazol-induced clonic seizures; assay: Subcutaneous pentylenetetrazol seizure test (scPTZ), mouse; assay type: in vivo, Carworth Farms No. 1 mice; conditions: pentylenetetrazol 85 mg/kg s.c., test compound intraperitoneally, read-out: Mouse PTZ ED50, s.c.
# Protocol: Methods to measure anticonvulsant activity: All tests were conducted by the Anticonvulsant Screening Program (ASP) of the National Institute of Neurological Disease and Stroke at the National Institutes of Health. The subcutaneous pentylenetetrazol (metrazol) seizure test (scPTZ). This model primarily identifies compounds that raise seizure threshold. The behavioral seizure produced is not typical of absence epilepsy but clonic in nature. With some minor exceptions, the pharmacological profile of the scPTZ seizure model is consistent with the human condition. The scPTZ test utilizes a dose of pentylenetetrazol (85 mg/kg in Carworth Farms No. 1 mice and 70 mg/kg in Sprague-Dawley rats). This produces clonic seizures lasting for a period of at least five seconds in 97 percent of animals tested. At the anticipated time of testing the convulsant is administered subcutaneously. The test compound is administered intraperitoneally in mice and orally in rats. Animals are observed over a 30 minute period. Absence of clonic spasms in the observed time period indicates a compound's ability to abolish the effect of pentylenetetrazol on seizure threshold (Swinyard E A. Laboratory evaluation of antiepileptic drugs: review of laboratory methods. Epilepsia, 1969, 10, 107-119).
# hippocampal neurons = assay: Prevention of reactive oxygen species accumulation from hydrogen peroxide (CDFFDA dye); assay type: cell-based; conditions: Rattus norvegicus, Hippocampal neuron; hydrogen peroxide for three hours, day 18 hippocampal cultures; read-out: Potency of Reduction in Oxidized CDFFDA (ROS) EC50
# Description: Cell cultures: all compounds were screened with dissociated hippocampal cultures derived from embryonic day 18 rats as the primary test system. With this preparation, primary neurons were used to test for prevention of reactive oxygen species accumulation in response to hydrogen peroxide. In brief, hippocampal tissue was obtained commercially through Brain Bits (Springfield, Ill.) and cultures prepared as previously described (Brewer, G. J. Serum-free B27/neurobasal medium supports differentiated growth of neurons from the striatum, substantia nigra, septum, cerebral cortex, cerebellum and dentate gyms. J. Neurosci. Res. 1995, 42, 674-683). […]
# Hydrogen peroxide and glutamate generate reactive oxygen species (ROS) such as superoxide anions, hydrogen peroxide and hydroxyl radicals which can reactively damage cellular components including DNA, lipids and proteins (Anderson et al. (2001). Green tea catechins partially protect DNA from OH radical-induced strand breaks and base damage through fast chemical repair of DNA radicals. Carcinogenesis 2001, 22:1189-1193). […] The cultures were then treated with 30 nM hydrogen peroxide for three hours and the fluorescence measured at Ex/Em 485/508. Background fluorescence was subtracted from values obtained from wells without cells.
Compound,ED50 (6-Hz psychomotor seizure),ED50 [1],pEC50 (hippocampal neurons)
"NS(=O)(=O)NCC(F)(F)c1ccccc1F [Example 1, 2,2-Difluoro-2-(2-fluorophenyl)-ethyl-1-sulfamide]",18 mg/kg,108 mg/kg,10.52
"NS(=O)(=O)NCC(F)(F)c1ccccc1Cl [Example 2, 2,2-Difluoro-2-(2-chlorophenyl)-ethyl-1-sulfamide]",28 mg/kg,98 mg/kg,11.00
